Measurements: article PMC10794144, “A novel antibiotic class targeting the lipopolysaccharide transporter” (Nature, 2024)
Where two headings read alike, the source gives them in different places.

Key:
[1] = Rat plasma precipitation assay; conditions: Wistar rat heparin plasma 1:1 with compound in saline/PBS; absorbance difference OD362 ≥ 0.05; n = 1
Protocol: Whole blood was obtained from WISTAR rats and collected in 1.2 ml heparin tubes for the preparation of heparin plasma. The tubes were then centrifuged for 5 min at 5,200g at room temperature to isolate the plasma supernatant. Test compounds were received as powder and solubilized at various concentrations in 0.9% aqueous sodium chloride solution and adjusted for pH with phosphate-buffered saline (PBS). The assay was conducted in 384-well plates. Rat plasma (10 µl) was added to 10 µl of the various compound solutions. A total of 10 µl of vehicle (0.9% aqueous sodium chloride solution, PBS) added to the plasma was used as a negative control. The absorption was measured at 362 nm. Raw data were obtained as absorbance data. The difference between the absorbance of the sample and the mean absorbance of the vehicle was calculated. The minimum effect concentration was defined as the lowest concentration giving an absorbance difference of OD362 ≥ 0.05.

A. baumannii [2] = test: Immunocompetent mouse septicaemia infection model; type: in vivo
Protocol: Septicaemia was induced in CD-1 immunocompetent male mice by an intraperitoneal inoculation of a bacterial suspension of the tested A. baumannii isolate at a challenge of approximately 1–2 log[CFU] above the determined median lethal dose (resulting in 10^5 to 10^7 CFU per mouse). […] Mouse survival was followed over 6–7 days. GraphPad Prism 8 was used for graphical presentation of the data. Septicaemia studies with mutant derivative isolates obtained in resistance studies were performed as described above, using a bacterial challenge as determined for the parental isolate.

C. albicans ATCC 90028 = conditions: C. albicans ATCC 90028, read at 100%
CYP3A4 = CYP3A4 (Homo sapiens, UniProt P08684); test: CYP inhibition; type: in vitro ADME
A. baumannii [3] = test: Neutropaenic mouse thigh infection model; type: in vivo; conditions: A. baumannii ACC01085, neutropenic mice, 24 h, summary table, same as average Log CFU/Thigh
Protocol: An intramuscular inoculation of a bacterial suspension of approximately 10^6 CFU per thigh was used to induce the infection. Treatment started 2 h after infection. […] In the pneumonia model, an intratracheal inoculation of approximately 10^7 CFU per lung was used to induce the infection. Treatment started 2 h after infection. […] Standard of care antibiotic was tested at a single dose in both infection models. GraphPad Prism 8 was used for graphical presentation and to analyse data.

[4] = Mouse pharmacokinetics study, i.v. bolus; type: in vivo; conditions: male CD1 mice, 1 mg/kg IV
Protocol: Three male CD1 mice were administered with compound formulation (0.5 mg ml^−1 in 0.9% aqueous sodium chloride solution) as an intravenous bolus dose of 1 mg per kg. Blood was sampled at 0.08, 0.25, 0.5, 1, 2, 4, 7 and 24 h after administration and the blood collecting tubes were centrifuged for 5 min at 5,200g at room temperature to isolate the plasma supernatant. The concentrations of compound in the plasma were analysed using a liquid chromatography–mass spectrometry method with a calibration range of 5–10,000 ng ml^−1. The pharmacokinetic parameters were derived from the individual concentration data and were estimated by non-compartmental analysis.

[5] = test system: GABA-A (benzodiazapine binding site); test: Off-target screening (CEREP); set-up: species or system rat; conditions: 10 µM, duplicates
Protocol: (§1) Supplementary Table 1 │ Off-target activity screening f or MCP compou nds […]
(§2) The assays given in the table above were conducted at Eurofins CEREP S A (Celle-Lévescault, France) and were run as single point measurements in duplicates in the presence of 10 µ M of the test compound and reported as percent inhibition of the radioligand signal or control enzymatic activity. n.d., not

HEK293 cells = test: Cell-viability assay (CellTiterGlo); type: cell-based; conditions: Homo sapiens, 24 h, 37 °C, 3.125–100 μM, n = 2
Protocol: Compounds were prepared in serial dilutions (3.125–100 μM in 1% DMSO) and transferred to 384-well plates together with a positive (Staurosporine) and a negative (no compound) control. In total, 25 μl of HEK293 cells (ATCC; verified by short tandem repeat PCR and mycoplasma negative) (50,000 cells per ml) were added in either low-serum-containing (0.5% fetal bovine serum (FBS)) or high-serum-containing (12.5% FBS, 1% BSA) medium (Dulbecco’s modified Eagle medium (DMEM), glucose, L-glutamine). The plates were incubated for 24 h at 37 °C and a mixture of CellTiterGlo and DMEM was added to the plates. After incubation at room temperature, the luminescence signal was read using a BioTeK reader and a calculated IC50 was derived from the data.

[6] = test system: Ca2+ channel (diltiazem site); test: Off-target screening (CEREP); type: binding, rat; conditions: 10 µM, duplicates
Protocol: as §1, §2

[7] = test system: GABA Cl- channel receptor; test: Off-target screening (CEREP); type: binding, rat; conditions: 10 µM, duplicates
Protocol: as §1, §2

PCP receptor = test: Off-target screening (CEREP); type: binding, rat; conditions: 10 µM, duplicates
Protocol: as §1, §2

[8] = Fraction unbound in mouse plasma; type: in vitro ADME

Sequence of CYP3A4 (P08684 whole entry): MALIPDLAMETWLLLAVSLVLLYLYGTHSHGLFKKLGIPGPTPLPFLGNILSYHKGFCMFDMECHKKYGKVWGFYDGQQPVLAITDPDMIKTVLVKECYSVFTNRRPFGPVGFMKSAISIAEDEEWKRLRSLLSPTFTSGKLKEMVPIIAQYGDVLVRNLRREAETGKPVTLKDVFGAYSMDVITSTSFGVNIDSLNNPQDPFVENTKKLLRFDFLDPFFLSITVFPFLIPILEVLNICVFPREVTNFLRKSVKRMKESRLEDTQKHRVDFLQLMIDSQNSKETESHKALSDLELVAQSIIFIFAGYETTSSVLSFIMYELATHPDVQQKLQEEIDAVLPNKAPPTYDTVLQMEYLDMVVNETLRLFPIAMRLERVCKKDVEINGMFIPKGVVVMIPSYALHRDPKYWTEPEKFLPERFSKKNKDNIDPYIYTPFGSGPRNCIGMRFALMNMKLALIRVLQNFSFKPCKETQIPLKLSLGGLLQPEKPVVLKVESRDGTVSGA

## CN1C(=O)[C@H](CCCCN)NC(=O)[C@H](CCCN)NCc2cccnc2Sc2cccc(-c3ccc(C(=O)O)cc3)c2CNC(=O)[C@@H]1Cc1c[nH]c2ccccc12 [zosurabalpin]
[1]
  Threshold concentration for precipitation: 1.76 mg/mL
A. baumannii [2]; ACC00445 parental, 2 x 30mg/kg s.c., vehicle 0
  Survival rate from sepsis, treated: 0/100%
A. baumannii [2]; ACC00445 septicaemia, 0.3 mg/kg s.c. at 1 and 5 h, Day 1
  Survivors, individual mouse status: 1
A. baumannii [2]; ACC00535 parental, 2 x 30mg/kg, vehicle 0
  Survival rate from sepsis, treated: 0/100%
A. baumannii [2]; ROB08706 parental, 2 x 30mg/kg, vehicle 0
  Survival rate from sepsis, treated: 0/100%
A. baumannii [2]; ROB08708 parental, 2 x 30mg/kg, vehicle 0
  Survival rate from sepsis, treated: 0/100%
A. baumannii [2]; ROB08961 (LpxM NS), 2 x 30mg/kg, vehicle 100
  Survival rate from sepsis, treated: 100/100%
A. baumannii [2]; ROB08979 (LptF R322L), 2 x 30mg/kg, vehicle 25
  Survival rate from sepsis, treated: 25/50%
A. baumannii [2]; ROB08982 (lpxM ISAba1), 2 x 30mg/kg, vehicle 87.5
  Survival rate from sepsis, treated: 87.5/100%
A. baumannii [2]; ROB08985 (LpxM NS), 2 x 30mg/kg, vehicle 100
  Survival rate from sepsis, treated: 100/100%
A. baumannii [2]; ROB08997 (LptF I323K), 2 x 30mg/kg, vehicle 0
  Survival rate from sepsis, treated: 0/0%
A. baumannii [2]; ROB08998 (AdeR A91V), 2 x 30mg/kg, vehicle 12.5
  Survival rate from sepsis, treated: 12.5/100%
A. baumannii [2]; ROB09000 (lpxM ISAba1), 2 x 30mg/kg, vehicle 100
  Survival rate from sepsis, treated: 100/100%
A. baumannii [2]; ROB21530 (LptF W271S), 2 x 30mg/kg, vehicle 25
  Survival rate from sepsis, treated: 25/37.5%
A. baumannii [2]; ROB21531 (LptG G40D), 2 x 30mg/kg, vehicle 0
  Survival rate from sepsis, treated: 0/87.5%
A. baumannii [2]; ROB21532 (LptF R322C), 2 x 30mg/kg, vehicle 50
  Survival rate from sepsis, treated: 50/50%
A. baumannii [2]; ROB21533 (LptF I317L), 2 x 30mg/kg, vehicle 0
  Survival rate from sepsis, treated: 0/0%
A. baumannii [2]; ROB23370 (adeS ISAba1), 2 x 30mg/kg, vehicle 0
  Survival rate from sepsis, treated: 0/75%
A. baumannii [2]; ROB23371 (AdeS R152K), 2 x 30mg/kg, vehicle 0
  Survival rate from sepsis, treated: 0/100%
A. baumannii [2]; ROB23373 (AdeS G318S), 2 x 30mg/kg, vehicle 0
  Survival rate from sepsis, treated: 0/100%
A. baumannii [2]; ROB23377 (AdeS R108S), 2 x 30mg/kg, vehicle 0
  Survival rate from sepsis, treated: 0/100%
A. baumannii [2]; ROB23380 (adeS ISAba1), 2 x 30mg/kg, vehicle 0
  Survival rate from sepsis, treated: 0/100%
C. albicans ATCC 90028; Study LGC296813
  RO7223280 MIC 100%: >64 µg/mL
C. albicans ATCC 90028; Study LGC299544
  RO7223280 MIC 100%: >64 µg/mL
C. albicans ATCC 90028; Study LGC308175
  RO7223280 MIC 100%: >64 µg/mL
CYP3A4
  CYP inh. (3A4): >50 (3A4) >50 (2C9) >50 (2D6) μM
A. baumannii [3]; 6 mg/kg/day q6h
  Bacterial Load (average): 8.75
A. baumannii [3]; 20 mg/kg/day q6h
  Bacterial Load (average): 7.85
A. baumannii [3]; 60 mg/kg/day q6h
  Bacterial Load (average): 7.41
A. baumannii [3]; 100 mg/kg/day q6h
  Bacterial Load (average): 6.21
A. baumannii [3]; 160 mg/kg/day q6h
  Bacterial Load (average): 4.10
A. baumannii [3]; 240 mg/kg/day q6h
  Bacterial Load (average): 3.37
A. baumannii [3]; 360 mg/kg/day q6h
  Bacterial Load (average): 3.09
[4]; n = 3
  Vss: 0.7 L/kg
  t1/2, terminal plasma half-life: 18 min
[4]; n = 3, LC-MS, non-compartmental
  Cl: 51 mL/min/kg
[5]
  percent inhibition: -1%
HEK293 cells
  IC50: > 100 µM
[6]
  percent inhibition: -11%
[7]
  percent inhibition: 1%
PCP receptor
  percent inhibition: -24%
[8]
  fu (m), fraction unbound in mouse plasma: 37%
